The record followed here is patent US11492347B2 (ENYO PHARMA, priority 2018, dated 2022).

For one test, the system named is LXFL 1121. As to the kind of experiment: Cytotoxicity, propidium iodide based monolayer assay. Particulars: 96 h; LXFL 1121 lung large cell carcinoma, four days of treatment, T/C=50%; read-out: Absolute IC50. As to the method:
The cytotoxicity was tested for compounds of the invention on five different cell-lines, namely LXFL 1121, MAXF 401, MMXF L-636, PRXF PC-3M and UXF 1138 which are respectively lung large cell carcinoma, breast adeno carcinoma, multiple myeloma, prostate adeno carcinoma and uterine sarcoma.
A working stock solution of the test compounds was prepared in DMSO at a concentration of 33 mM or 8.25 mM, and small aliquots were stored at −20° C. On each day of an experiment, a frozen aliquot of the working stock solution was thawed and stored at room temperature prior to and during treatment.
All liquid handling steps were performed using the Tecan Freedom EVO 200 platform. First, serial 2-fold dilutions of the 33 mM DMSO working stock solution were done in DMSO. The DMSO dilutions were then diluted 1:22 into cell culture medium in an intermediate dilution plate. Finally, 10 μl taken from the intermediate dilution plate were transferred to 140 μl/well of the final assay plate. Thus, the DMSO serial dilutions were diluted 1:330 with cell culture medium, and the DMSO concentration in the assay was 0.3% v/v.
Cell lines were routinely passaged once or twice weekly and maintained in culture for up to 20 passages. […]
A modified propidium iodide (PI) based monolayer assay was used to assess the anti-cancer activity of the compounds. Briefly, cells were harvested from exponential phase cultures, counted and plated in 96 well flat-bottom microtiter plates at a cell density of 4,000 to 40,000 cells/well dependent on the cell line's growth rate. […] After an incubation period of 1-2 hours at room temperature, fluorescence (FU) was measured using the Enspire Multimode Plate Reader (excitation λ=530 nm, emission k=620 nm) to quantify the amount of attached viable cells.
Drug effects were expressed in terms of the percentage of the fluorescence signal, obtained by comparison of the mean signal in the treated wells with the mean signal of the untreated controls (expressed by the test-versus-control value, T/C−value [%]): […]

The test system of another test is MAXF 401. The test is described as above. Particulars: Homo sapiens, MAXF401, 96 h; MAXF 401 breast adeno carcinoma, four days of treatment, T/C=50%; read-out: Absolute IC50. Format: cell-based.
A further test deals with MMXF L-363. The test is described as above. Format: cell-based. Particulars: Homo sapiens, 96 h; MMXF L-363 multiple myeloma, four days of treatment, T/C=50%; read-out: Absolute IC50.
A further test deals with PRXF PC-3M. The test is described as above. Particulars: Homo sapiens, 96 h; PRXF PC-3M prostate adeno carcinoma, four days of treatment, T/C=50%; read-out: Absolute IC50. Format: cell-based.
For a further test, the system named is NFκB. Nature of the test: NFκB reporter assay, TNFα stimulation of A549 NFκB-NanoLuciferase reporter cells. Format: cell-based. Particulars: Homo sapiens, 4 ng/ml TNFα, NanoGlo luciferase assay 6 hours later. An excerpt: Compounds of the present invention have been tested for their capacity to inhibit NFκB.
The NFκB reporter construct was made by cloning 5 NFκB responsive elements upstream of a NanoLuciferase reporter gene flanked by AAVS1 genomic sequences.
NFκB Responsive element fused with NanoLuciferase and SV40 late Poly(A) signal was amplified from pNL3.2-NFκB-Nluc (Promega) using NFKB-NLUC-F and NFKB-NLUC-R primers and inserted by Infusion (TaKaRa) in AAVS1 SA-2A-puro-pA donor plasmid (Hockemeyer et al, Nat Biotechnol. 2009, 27, 851-7) digested by Sal1. pCRISPR AAVS1-T2 expressing a guide RNA (gRNA) to target human AAVS1 (T2 target sequence) was constructed by inserting AAVS1-T2A hybridized primers in pLentiCRISPR v2-blast (Sanjana et al, Nat Methods. 2014, 11, 783-4) digested by Bsmbl.
A549 cells were transfected by the plasmids and puromycine selected for 5 days (1 μg mL-1). Then clones were obtained by limiting dilution and selected to maximize TNF dependent NFκB-NanoLuciferase induction.
The reporter cells were seeded on a 96-well plate for overnight with DMEM including 10% FBS. Test compounds were added at varying concentrations. The cells then were treated with 4 ng/ml TNFα (Peprotech, ref E251) in DMEM+10% FBS. NanoGlo luciferase assay (Promega) was carried out 6 hours later. Luminescence was measured using a Spark 20M spectrofluorimeter (Tecan). Values were normalized to the luminescence measured in untreated cells.
On the technique in general: A reporter such as luciferase makes a cellular process visible.

The IC50 is the midpoint of a concentration-inhibition curve. `CC1(C)CCc2sc(NC(=O)c3ccccc3)c(C(=O)O)c21` [Compound #37, 2-Benzamido-4,4-dimethyl-5,6-dihydrocyclopenta[b]thiophene-3-carboxylic acid]: the IC50 amounted to 24.7 µM with LXFL 1121, 11.3 µM with MAXF 401, 13.9 µM in the test on MMXF L-363 and 9.67 µM in the test with PRXF PC-3M.
As usually defined, the EC50 is the concentration that produces a half-maximal response. Low readings indicate an effect from little substance, high ones a need for much substance. The compound `CC1(C)Cc2c(sc(NC(=O)c3ccc(N4CCOCC4)cc3)c2C(=O)O)C(C)(C)C1` [Compound #36, 5,5,7,7-Tetramethyl-2-[(4-morpholinobenzoyl)amino]-4,6-dihydrobenzothiophene-3-carboxylic acid] returned an EC50 in the test on NFκB of 0.2 µM. In addition, the half-inhibitory concentration (IC50) in the test on MMXF L-363 came out at 1.72 µM.
As for `COC1CN(c2ccc(C(=O)Nc3sc4c(c3C(=O)O)CC(C)(C)CC4(C)C)cc2)C1` [Compound #58, 2-[[4-(3-Methoxyazetidin-1-yl)benzoyl]amino]-5,5,7,7-tetramethyl-4,6-dihydrobenzothiophene-3-carboxylic acid], the half-inhibitory concentration (IC50) in the test with LXFL 1121 was 1.77 µM; with PRXF PC-3M, 0.888 µM.
